Experimental data reported in patent US9738612B2, “Methylacryloyl benzimidazolone derivative and anti-tumour use thereof” (SHANGHAI NATURE STANDARD R&D AND BIOTECH CO., LTD, priority 2014, dated 2017).

Assays:
Assay in all cases: Tumor-associated kinase inhibition test
Type in all cases: biochemical
Settings in all cases: read-out: Inhibitory rate (%)
ASK1(h) = target: T1, ASK1(h) (Homo sapiens, UniProt Q99683)
T1 construct: purchased Eurofins Pharma Discovery Services UK Limited (contract assay service)
Excerpt: (§1) Eurofins Pharma Discovery Services UK Limited completed and reported this experiment.

Abl(T315I)(h) = target: T2, Abl(T315I)(h) (Homo sapiens, UniProt P00519, T315I)
T2 construct: purchased Eurofins Pharma Discovery Services UK Limited (contract assay service)
Excerpt: as §1

Abl(h) = target: T3, Abl(h) (Homo sapiens, UniProt P00519)
T3 construct: purchased Eurofins Pharma Discovery Services UK Limited (contract assay service)
Excerpt: as §1

BTK(h) = target: T4, BTK(h) (Homo sapiens, UniProt Q06187)
T4 construct: purchased Eurofins Pharma Discovery Services UK Limited (contract assay service)
Excerpt: as §1

CDK2/cyclinE(h) = target: T5, CDK2/cyclinE(h) (Homo sapiens, UniProt P24941)
T5 construct: purchased Eurofins Pharma Discovery Services UK Limited (contract assay service)
Excerpt: as §1

CDK6/cyclinD3(h) = target: T6, CDK6/cyclinD3(h) (Homo sapiens, UniProt Q00534)
T6 construct: purchased Eurofins Pharma Discovery Services UK Limited (contract assay service)
Excerpt: as §1

CHK1(h) = target: T7, CHK1(h) (Homo sapiens, UniProt O14757)
T7 construct: purchased Eurofins Pharma Discovery Services UK Limited (contract assay service)
Excerpt: as §1

CHK2(h) = target: T8, CHK2(h) (Homo sapiens, UniProt O96017)
T8 construct: purchased Eurofins Pharma Discovery Services UK Limited (contract assay service)
Excerpt: as §1

CaMKI(h) = target: T9, CaMKI(h) (Homo sapiens, UniProt Q14012)
T9 construct: purchased Eurofins Pharma Discovery Services UK Limited (contract assay service)
Excerpt: as §1

CaMKK2(h) = target: T10, CaMKK2(h) (Homo sapiens, UniProt Q96RR4)
T10 construct: purchased Eurofins Pharma Discovery Services UK Limited (contract assay service)
Excerpt: as §1

EGFR(h) = target: T11, EGFR(h) (Homo sapiens, UniProt P00533)
T11 construct: purchased Eurofins Pharma Discovery Services UK Limited (contract testing)
Excerpt: as §1

Fyn(h) = target: T12, Fyn(h) (Homo sapiens, UniProt P06241)
T12 construct: purchased Eurofins Pharma Discovery Services UK Limited (contract testing)
Excerpt: as §1

IRAK1(h) = target: T13, IRAK1(h) (Homo sapiens, UniProt P51617)
T13 construct: purchased Eurofins Pharma Discovery Services UK Limited (contract testing)
Excerpt: as §1

JAK2(h) = target: T14, JAK2(h) (Homo sapiens, UniProt O60674)
T14 construct: purchased Eurofins Pharma Discovery Services UK Limited (contract testing)
Excerpt: as §1

JNK2α2(h) = target: T15, JNK2α2(h) (Homo sapiens, UniProt P45984)
T15 construct: purchased Eurofins Pharma Discovery Services UK Limited (contract testing)
Excerpt: as §1

MEK1(h) = target: T16, MEK1(h) (Homo sapiens, UniProt Q02750)
T16 construct: purchased Eurofins Pharma Discovery Services UK Limited
Excerpt: as §1

Met(h) = target: T17, Met(h) (Homo sapiens, UniProt P08581)
T17 construct: purchased Eurofins Pharma Discovery Services UK Limited
Excerpt: as §1

PAK2(h) = target: T18, PAK2(h) (Homo sapiens, UniProt Q13177)
T18 construct: purchased Eurofins Pharma Discovery Services UK Limited
Excerpt: as §1

PDGFRα(h) = target: T19, PDGFRα(h) (Homo sapiens, UniProt P16234)
T19 construct: purchased Eurofins Pharma Discovery Services UK Limited
Excerpt: as §1

PDGFRβ(h) = target: T20, PDGFRβ(h) (Homo sapiens, UniProt P09619)
T20 construct: purchased Eurofins Pharma Discovery Services UK Limited
Excerpt: as §1

[1] = target: T21, PI3Kinase(p110α(E545K)/p85α)(h) (Homo sapiens, UniProt P42336, E545K)
T21 construct: purchased Eurofins Pharma Discovery Services UK Limited (contract assay)
Excerpt: as §1

PI3Kinase(p110α/p85α)(h) = target: T22, PI3Kinase(p110α/p85α)(h) (Homo sapiens, UniProt P42336)
T22 construct: purchased Eurofins Pharma Discovery Services UK Limited (contract assay)
Excerpt: as §1

PI3Kinase(p110β/p85α)(h) = target: T23, PI3Kinase(p110β/p85α)(h) (Homo sapiens, UniProt P42338)
T23 construct: purchased Eurofins Pharma Discovery Services UK Limited (contract assay)
Excerpt: as §1

PIP4K2α(h) = target: T24, PIP4K2α(h) (Homo sapiens, UniProt P48426)
T24 construct: purchased Eurofins Pharma Discovery Services UK Limited (contract assay)
Excerpt: as §1

PKBβ(h) = target: T25, PKBβ(h) (Homo sapiens, UniProt P31751)
T25 construct: purchased Eurofins Pharma Discovery Services UK Limited
Excerpt: as §1

PKCβII(h) = target: T26, PKCβII(h) (Homo sapiens, UniProt P05771)
T26 construct: purchased Eurofins Pharma Discovery Services UK Limited
Excerpt: as §1

PKCδ(h) = target: T27, PKCδ(h) (Homo sapiens, UniProt Q05655)
T27 construct: purchased Eurofins Pharma Discovery Services UK Limited
Excerpt: as §1

PKCε(h) = target: T28, PKCε(h) (Homo sapiens, UniProt Q02156)
T28 construct: purchased Eurofins Pharma Discovery Services UK Limited
Excerpt: as §1

PKCζ(h) = target: T29, PKCζ(h) (Homo sapiens, UniProt Q05513)
T29 construct: purchased Eurofins Pharma Discovery Services UK Limited
Excerpt: as §1

PKCη(h) = target: T30, PKCη(h) (Homo sapiens, UniProt P24723)
T30 construct: purchased Eurofins Pharma Discovery Services UK Limited
Excerpt: as §1

PKCμ(h) = target: T31, PKCμ(h) (Homo sapiens, UniProt Q15139)
T31 construct: purchased Eurofins Pharma Discovery Services UK Limited
Excerpt: as §1

PRAK(h) = target: T32, PRAK(h) (Homo sapiens, UniProt Q8IW41)
T32 construct: purchased Eurofins Pharma Discovery Services UK Limited
Excerpt: as §1

Pim-1(h) = target: T33, Pim-1(h) (Homo sapiens, UniProt P11309)
T33 construct: purchased Eurofins Pharma Discovery Services UK Limited
Excerpt: as §1

Ret(h) = target: T34, Ret(h) (Homo sapiens, UniProt P07949)
T34 construct: purchased Eurofins Pharma Discovery Services UK Limited
Excerpt: as §1

Syk(h) = target: T35, Syk(h) (Homo sapiens, UniProt P43405)
T35 construct: purchased Eurofins Pharma Discovery Services UK Limited
Excerpt: as §1

ZAP-70(h) = target: T36, ZAP-70(h) (Homo sapiens, UniProt P43403)
T36 construct: purchased Eurofins Pharma Discovery Services UK Limited
Excerpt: as §1

cKit(h) = target: T37, cKit(h) (Homo sapiens, UniProt P10721)
T37 construct: purchased Eurofins Pharma Discovery Services UK Limited (contract testing)
Excerpt: as §1

mTOR/FKBP12(h) = target: T38, mTOR/FKBP12(h) (Homo sapiens, UniProt P42345)
T38 construct: purchased Eurofins Pharma Discovery Services UK Limited
Excerpt: as §1

p70S6K(h) = target: T39, p70S6K(h) (Homo sapiens, UniProt P23443)
T39 construct: purchased Eurofins Pharma Discovery Services UK Limited
Excerpt: as §1

T13 sequence (P51617 whole entry): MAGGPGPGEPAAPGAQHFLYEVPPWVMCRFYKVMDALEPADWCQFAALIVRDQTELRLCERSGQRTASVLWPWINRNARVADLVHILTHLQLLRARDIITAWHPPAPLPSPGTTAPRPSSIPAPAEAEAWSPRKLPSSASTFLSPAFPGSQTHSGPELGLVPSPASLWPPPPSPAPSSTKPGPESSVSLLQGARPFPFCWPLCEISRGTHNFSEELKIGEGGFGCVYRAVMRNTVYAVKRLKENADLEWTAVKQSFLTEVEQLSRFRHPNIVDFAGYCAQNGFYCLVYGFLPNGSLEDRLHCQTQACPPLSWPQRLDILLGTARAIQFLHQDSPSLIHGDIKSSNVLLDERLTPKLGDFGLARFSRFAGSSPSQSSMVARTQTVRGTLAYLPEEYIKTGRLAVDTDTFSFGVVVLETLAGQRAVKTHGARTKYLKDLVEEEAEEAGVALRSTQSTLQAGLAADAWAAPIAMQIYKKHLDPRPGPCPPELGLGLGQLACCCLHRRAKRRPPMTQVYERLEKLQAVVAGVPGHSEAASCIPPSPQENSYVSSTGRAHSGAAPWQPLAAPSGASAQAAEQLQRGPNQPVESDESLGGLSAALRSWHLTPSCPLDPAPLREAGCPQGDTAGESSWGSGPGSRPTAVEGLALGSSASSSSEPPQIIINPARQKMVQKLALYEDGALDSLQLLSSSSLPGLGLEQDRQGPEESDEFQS
T26 sequence (P05771 1-673 isoform P05771-2): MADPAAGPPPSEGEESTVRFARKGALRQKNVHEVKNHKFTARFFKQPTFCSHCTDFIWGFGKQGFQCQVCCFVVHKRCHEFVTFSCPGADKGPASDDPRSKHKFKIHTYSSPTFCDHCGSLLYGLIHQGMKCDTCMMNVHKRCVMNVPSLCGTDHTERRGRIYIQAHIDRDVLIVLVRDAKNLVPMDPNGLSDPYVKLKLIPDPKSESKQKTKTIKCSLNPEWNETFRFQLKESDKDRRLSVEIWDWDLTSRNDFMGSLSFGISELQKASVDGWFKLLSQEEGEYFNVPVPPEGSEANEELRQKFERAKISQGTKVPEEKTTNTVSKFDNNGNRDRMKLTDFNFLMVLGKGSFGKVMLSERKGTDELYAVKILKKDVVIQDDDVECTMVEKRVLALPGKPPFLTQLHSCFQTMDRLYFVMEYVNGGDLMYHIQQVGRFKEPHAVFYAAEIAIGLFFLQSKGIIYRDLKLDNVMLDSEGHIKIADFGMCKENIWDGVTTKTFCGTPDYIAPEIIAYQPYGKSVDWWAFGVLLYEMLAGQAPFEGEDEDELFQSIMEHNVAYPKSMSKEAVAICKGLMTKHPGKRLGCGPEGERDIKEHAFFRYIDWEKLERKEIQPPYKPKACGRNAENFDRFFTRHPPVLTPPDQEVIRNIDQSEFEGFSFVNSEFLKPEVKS
T14 sequence (O60674 whole entry): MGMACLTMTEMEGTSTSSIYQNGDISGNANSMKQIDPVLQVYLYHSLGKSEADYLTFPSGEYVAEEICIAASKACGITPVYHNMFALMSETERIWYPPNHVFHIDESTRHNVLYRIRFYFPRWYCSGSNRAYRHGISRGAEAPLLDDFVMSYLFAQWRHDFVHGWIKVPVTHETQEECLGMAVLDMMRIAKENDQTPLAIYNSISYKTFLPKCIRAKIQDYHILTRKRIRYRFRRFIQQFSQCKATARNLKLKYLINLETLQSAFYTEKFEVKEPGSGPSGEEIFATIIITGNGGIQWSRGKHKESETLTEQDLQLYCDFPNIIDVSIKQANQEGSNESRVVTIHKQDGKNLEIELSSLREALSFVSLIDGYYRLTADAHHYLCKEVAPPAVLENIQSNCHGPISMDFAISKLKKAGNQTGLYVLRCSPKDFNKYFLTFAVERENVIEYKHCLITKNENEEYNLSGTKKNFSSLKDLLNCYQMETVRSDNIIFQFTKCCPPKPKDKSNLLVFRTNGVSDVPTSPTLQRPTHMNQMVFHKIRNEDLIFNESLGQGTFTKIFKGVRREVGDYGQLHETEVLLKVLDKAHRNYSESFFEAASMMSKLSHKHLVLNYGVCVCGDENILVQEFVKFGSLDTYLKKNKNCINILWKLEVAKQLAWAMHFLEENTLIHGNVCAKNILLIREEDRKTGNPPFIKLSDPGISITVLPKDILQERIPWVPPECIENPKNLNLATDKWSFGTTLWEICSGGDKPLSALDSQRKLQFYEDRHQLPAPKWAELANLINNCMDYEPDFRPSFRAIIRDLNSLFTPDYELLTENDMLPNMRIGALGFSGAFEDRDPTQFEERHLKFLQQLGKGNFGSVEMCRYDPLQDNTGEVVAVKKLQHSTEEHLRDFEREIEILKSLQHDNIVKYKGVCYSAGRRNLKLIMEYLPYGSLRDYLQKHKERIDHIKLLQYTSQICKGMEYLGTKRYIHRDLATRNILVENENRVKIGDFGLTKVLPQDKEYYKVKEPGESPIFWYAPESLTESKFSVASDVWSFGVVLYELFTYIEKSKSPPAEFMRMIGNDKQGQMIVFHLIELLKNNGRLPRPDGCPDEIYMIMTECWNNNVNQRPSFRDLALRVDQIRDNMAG
T4 sequence (Q06187 whole entry): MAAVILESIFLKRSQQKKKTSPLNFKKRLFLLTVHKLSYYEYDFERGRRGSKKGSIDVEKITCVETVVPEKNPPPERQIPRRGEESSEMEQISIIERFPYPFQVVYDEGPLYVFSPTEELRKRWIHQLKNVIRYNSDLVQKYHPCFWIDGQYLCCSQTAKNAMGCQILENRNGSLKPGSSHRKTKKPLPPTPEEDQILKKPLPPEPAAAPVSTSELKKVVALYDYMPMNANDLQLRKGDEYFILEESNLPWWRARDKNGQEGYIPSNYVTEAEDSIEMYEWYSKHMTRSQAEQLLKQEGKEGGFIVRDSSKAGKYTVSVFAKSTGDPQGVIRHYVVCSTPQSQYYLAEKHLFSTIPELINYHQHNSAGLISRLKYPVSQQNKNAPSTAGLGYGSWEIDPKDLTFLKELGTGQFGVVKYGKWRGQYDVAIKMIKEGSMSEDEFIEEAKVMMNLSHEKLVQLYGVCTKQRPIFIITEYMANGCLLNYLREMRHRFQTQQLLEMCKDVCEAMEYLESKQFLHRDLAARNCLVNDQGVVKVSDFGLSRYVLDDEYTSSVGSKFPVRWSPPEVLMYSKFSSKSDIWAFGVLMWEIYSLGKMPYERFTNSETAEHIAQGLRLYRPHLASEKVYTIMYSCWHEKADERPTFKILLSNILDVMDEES
T39 sequence (P23443 whole entry): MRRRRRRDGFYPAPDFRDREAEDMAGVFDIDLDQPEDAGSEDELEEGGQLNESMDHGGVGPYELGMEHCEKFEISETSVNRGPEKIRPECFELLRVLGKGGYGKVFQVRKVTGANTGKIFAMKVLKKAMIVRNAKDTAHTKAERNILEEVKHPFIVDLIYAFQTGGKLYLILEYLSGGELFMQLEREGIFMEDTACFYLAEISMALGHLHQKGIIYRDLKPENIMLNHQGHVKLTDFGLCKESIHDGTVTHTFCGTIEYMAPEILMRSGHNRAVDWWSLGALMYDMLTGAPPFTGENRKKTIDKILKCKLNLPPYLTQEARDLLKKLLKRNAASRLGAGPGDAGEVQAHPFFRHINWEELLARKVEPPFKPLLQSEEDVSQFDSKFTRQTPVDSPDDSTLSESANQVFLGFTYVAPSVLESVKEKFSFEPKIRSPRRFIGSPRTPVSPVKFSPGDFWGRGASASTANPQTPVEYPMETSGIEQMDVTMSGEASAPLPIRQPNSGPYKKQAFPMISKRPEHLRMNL
T15 sequence (P45984 whole entry): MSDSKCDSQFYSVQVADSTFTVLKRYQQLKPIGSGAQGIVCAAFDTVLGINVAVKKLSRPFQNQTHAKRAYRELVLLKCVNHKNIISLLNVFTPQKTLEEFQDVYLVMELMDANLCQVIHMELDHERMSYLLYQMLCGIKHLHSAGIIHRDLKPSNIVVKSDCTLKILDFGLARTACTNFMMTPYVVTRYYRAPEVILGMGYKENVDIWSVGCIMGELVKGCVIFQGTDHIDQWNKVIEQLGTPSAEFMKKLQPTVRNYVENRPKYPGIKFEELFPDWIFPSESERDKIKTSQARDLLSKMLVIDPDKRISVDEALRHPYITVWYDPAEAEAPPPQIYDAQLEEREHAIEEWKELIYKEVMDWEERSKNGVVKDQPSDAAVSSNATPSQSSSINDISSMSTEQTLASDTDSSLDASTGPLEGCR
T27 sequence (Q05655 whole entry): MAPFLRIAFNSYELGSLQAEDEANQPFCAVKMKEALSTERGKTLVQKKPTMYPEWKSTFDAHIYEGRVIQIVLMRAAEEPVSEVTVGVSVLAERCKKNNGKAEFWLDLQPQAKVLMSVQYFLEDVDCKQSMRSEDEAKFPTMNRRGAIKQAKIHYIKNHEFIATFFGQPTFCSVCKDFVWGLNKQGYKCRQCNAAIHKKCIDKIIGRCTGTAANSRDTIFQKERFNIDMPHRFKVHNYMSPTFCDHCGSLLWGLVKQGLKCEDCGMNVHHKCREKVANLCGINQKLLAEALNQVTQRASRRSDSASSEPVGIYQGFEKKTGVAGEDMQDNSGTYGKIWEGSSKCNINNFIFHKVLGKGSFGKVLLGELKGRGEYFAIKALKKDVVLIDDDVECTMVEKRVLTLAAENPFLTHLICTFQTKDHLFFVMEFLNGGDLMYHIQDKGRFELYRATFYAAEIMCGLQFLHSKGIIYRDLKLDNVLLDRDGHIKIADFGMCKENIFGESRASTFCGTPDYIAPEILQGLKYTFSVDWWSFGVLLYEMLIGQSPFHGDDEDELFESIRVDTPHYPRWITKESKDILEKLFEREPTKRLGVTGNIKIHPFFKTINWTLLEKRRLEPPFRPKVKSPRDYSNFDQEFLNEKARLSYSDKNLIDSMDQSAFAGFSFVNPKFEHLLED

## C=C(C)n1c(=O)n(C(C)=O)c2ncc(Br)cc21 [FD162]
ASK1(h)
  inhibition at 10 µM: 4%
Abl(T315I)(h)
  inhibition at 10 µM: -14%
Abl(h)
  inhibition at 10 µM: 2%
BTK(h)
  inhibition at 10 µM: 7%
CDK2/cyclinE(h)
  inhibition at 10 µM: 0%
CDK6/cyclinD3(h)
  inhibition at 10 µM: -1%
CHK1(h)
  inhibition at 10 µM: -14%
CHK2(h)
  inhibition at 10 µM: 4%
CaMKI(h)
  inhibition at 10 µM: -1%
CaMKK2(h)
  inhibition at 10 µM: 1%
EGFR(h)
  inhibition at 10 µM: 0%
Fyn(h)
  inhibition at 10 µM: 2%
IRAK1(h)
  inhibition at 10 µM: 9%
JAK2(h)
  inhibition at 10 µM: 7%
JNK2α2(h)
  inhibition at 10 µM: 3%
MEK1(h)
  inhibition at 10 µM: -2%
Met(h)
  inhibition at 10 µM: -9%
PAK2(h)
  inhibition at 10 µM: 8%
PDGFRα(h)
  inhibition at 10 µM: -9%
PDGFRβ(h)
  inhibition at 10 µM: -8%
[1]
  inhibition at 10 µM: 4%
PI3Kinase(p110α/p85α)(h)
  inhibition at 10 µM: -1%
PI3Kinase(p110β/p85α)(h)
  inhibition at 10 µM: -3%
PIP4K2α(h)
  inhibition at 10 µM: -2%
PKBβ(h)
  inhibition at 10 µM: 4%
PKCβII(h)
  inhibition at 10 µM: 6%
PKCδ(h)
  inhibition at 10 µM: 18%
PKCε(h)
  inhibition at 10 µM: -1%
PKCζ(h)
  inhibition at 10 µM: 5%
PKCη(h)
  inhibition at 10 µM: 2%
PKCμ(h)
  inhibition at 10 µM: 6%
PRAK(h)
  inhibition at 10 µM: 10%
Pim-1(h)
  inhibition at 10 µM: 3%
Ret(h)
  inhibition at 10 µM: 7%
Syk(h)
  inhibition at 10 µM: 0%
ZAP-70(h)
  inhibition at 10 µM: -5%
cKit(h)
  inhibition at 10 µM: 7%
mTOR/FKBP12(h)
  inhibition at 10 µM: 33%
p70S6K(h)
  inhibition at 10 µM: 3%
